Measured values from patent US10131652B2, “Pyrimidinyloxy benzene derivatives as herbicides” (E. I. DU PONT DE NEMOURS AND COMPANY, priority 2014, dated 2018).

Legend:
Assay type in all cases: in vivo
[1] = tested on: barnyardgrass (Echinochloa crus-galli); assay: Test B pre-/postemergence plant response
Outline: (§1)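 Scoring used a 0–100 scale (100 = complete control) by visual comparison with untreated plants after approximately 10 days in the greenhouse. Compounds, in surfactant-containing non-phytotoxic solvent, were sprayed onto soil at planting or onto 2–10 cm seedlings.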

corn (Zea mays) = assay: Test B pre-/postemergence plant response
Outline: as §1

[2] = tested on: giant foxtail (Setaria faberii); assay: Test B pre-/postemergence plant response
Outline: as §1

[3] = tested on: large (Lg) crabgrass (Digitaria sanguinalis); assay: Test B pre-/postemergence plant response
Outline: as §1

[4] = tested on: morningglory (Ipomoea spp.); assay: Test B pre-/postemergence plant response
Outline: as §1

[5] = tested on: pigweed (Amaranthus retroflexus); assay: Test B pre-/postemergence plant response
Outline: as §1

[6] = tested on: velvetleaf (Abutilon theophrasti); assay: Test B pre-/postemergence plant response
Outline: as §1

[7] = tested on: wheat (Triticum aestivum); assay: Test B pre-/postemergence plant response
Outline: as §1

[8] = tested on: barnyardgrass (Echinochloa crus-galli); assay: Test C flooded paddy test plant response; details: Flood, 250 g ai/ha; scale of 0 to 100 where 0 is no effect and 100 is complete control; 13 to 15 days
Outline: (§2)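 Visual injury ratings (0, no effect; 100, complete control) were assigned after 13 to 15 days in a greenhouse, comparing treated plants with controls. Compounds had been added straight into paddy water over 2-leaf-stage plants flooded to 3 cm.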

[9] = tested on: ducksalad (Heteranthera limosa); assay: Test C flooded paddy test plant response; details: Flood, 250 g ai/ha; scale of 0 to 100 where 0 is no effect and 100 is complete control; 13 to 15 days
Outline: as §2

rice (Oryza sativa) = assay: Test C flooded paddy test plant response; details: Flood, 250 g ai/ha; scale of 0 to 100 where 0 is no effect and 100 is complete control; 13 to 15 days
Outline: as §2

[10] = tested on: small-flower umbrella sedge (Cyperus difformis); assay: Test C flooded paddy test plant response; details: Flood, 250 g ai/ha; scale of 0 to 100 where 0 is no effect and 100 is complete control; 13 to 15 days
Outline: as §2

[11] = 125 g ai/ha, postemergence, 0 to 100 scale, 0 no effect, 100 complete control
[12] = Postemergence, 500 g ai/ha, 0 to 100 scale (0 no effect, 100 complete control)
[13] = Preemergence, 125 g ai/ha, 0 to 100 scale where 0 is no effect and 100 is complete control
[14] = Preemergence, 500 g ai/ha, 0 to 100 scale (0 no effect, 100 complete control)

Compound | Plant response rating, Barnyardgrass [1, 11] | Plant response rating, Barnyardgrass [1, 12] | Plant response rating, Barnyardgrass [1, 13] | Plant response rating, Barnyardgrass [1, 14] | Plant response rating, Corn (corn (Zea mays); [13]) | Plant response rating, Corn (corn (Zea mays); [14]) | Plant response rating, Foxtail, Giant [2, 11] | Plant response rating, Foxtail, Giant [2, 12] | Plant response rating, Foxtail, Giant [2, 13] | Plant response rating, Foxtail, Giant [2, 14] | Plant response rating, Crabgrass, Large [3, 11] | Plant response rating, Crabgrass, Large [3, 12] | Plant response rating, Crabgrass, Large [3, 13] | Plant response rating, Crabgrass, Large [3, 14] | Plant response rating, Morningglory [4, 11] | Plant response rating, Morningglory [4, 12] | Plant response rating, Morningglory [4, 13] | Plant response rating, Morningglory [4, 14] | Plant response rating, Pigweed [5, 11] | Plant response rating, Pigweed [5, 12] | other results
Clc1cnc(Oc2ccccc2-c2cccnc2)nc1 [Compound 4] | 0 | 10 | 0 | 0 | 0 | 0 | 0 | 30 | 10 | 50 | 20 | 50 | 10 | 80 | 0 | 30 | 0 | 0 | 30 | 100 | Plant response rating, Pigweed [5, 13]: 30; Plant response rating, Pigweed [5, 14]: 70; Plant response rating, Velvetleaf [6, 11]: 30; Plant response rating, Velvetleaf [6, 12]: 60; Plant response rating, Velvetleaf [6, 13]: 0; Plant response rating, Velvetleaf [6, 14]: 30; Plant response rating, Wheat [7, 11]: 0; Plant response rating, Wheat [7, 12]: 0; Plant response rating, Wheat [7, 13]: 0; Plant response rating, Wheat [7, 14]: 0; Barnyardgrass plant response rating [8]: 0; Ducksalad plant response rating [9]: 0; Rice plant response rating (rice (Oryza sativa)): 0; Sedge, Umbrella plant response rating [10]: 0
FC(F)(F)c1nccc(-c2ccccc2Oc2ncc(Cl)cn2)n1 [Compound 20] | 0 | 0 | 0 | 0 | 0 | 0 | 0 | 20 | 10 | 60 | 0 | 20 | 10 | 70 | 0 | 50 | 0 | 0 | 40 | 90 | Plant response rating, Corn (corn (Zea mays); [11]): 0; Plant response rating, Corn (corn (Zea mays); [12]): 0; Plant response rating, Pigweed [5, 13]: 0; Plant response rating, Pigweed [5, 14]: 20; Plant response rating, Velvetleaf [6, 11]: 0; Plant response rating, Velvetleaf [6, 12]: 30; Plant response rating, Velvetleaf [6, 13]: 0; Plant response rating, Velvetleaf [6, 14]: 20; Plant response rating, Wheat [7, 11]: 0; Plant response rating, Wheat [7, 12]: 0; Plant response rating, Wheat [7, 13]: 0; Plant response rating, Wheat [7, 14]: 0; Barnyardgrass plant response rating [8]: 0; Ducksalad plant response rating [9]: 0; Rice plant response rating (rice (Oryza sativa)): 0; Sedge, Umbrella plant response rating [10]: 0
